Data on 10 compounds can be found in patent US20240376097A1, “BCL-2 Inhibitor” (BeiGene Ltd., priority 2020, published 2024).

Experiment [1] concerns the target Recombinant human Bcl-2 protein (Homo sapiens (Human), UniProt P10415). Description: Bcl-2 TR-FRET Assay. It counts as binding. As to conditions: Bcl-2 wild type, TR-FRET; read-out: Biochemical assay (IC50, nM) Bcl-2 WT. Summed up: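 0.05 nM recombinant Bcl-2 preincubated 0.5 h at room temperature with 10-point compound dilutions (top final 1, 0.1, 0.02 or 0.01 uM) in pH 7.5 phosphate buffer. FITC-Bak peptide (0.5 nM) and anti-6His Tb cryptate then added for 1 h. TR-FRET read; IC50 from four-parameter logistic fit.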

Experiment [2] concerns the target recombinant human Bcl-2-G101V protein (Homo sapiens (Human), UniProt P10415, G101V). Description: Bcl-2-G101V TR-FRET Assay. The class given is binding. As to conditions: Bcl-2 G101V mutant, TR-FRET; read-out: Biochemical assay (IC50, nM) Bcl-2 G101V. Summed up:
(§1)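 Measures how compounds block Bcl-2-G101V engaging its ligand, by TR-FRET with 337 nm excitation and a 490/520 nm emission ratio; dose-response data give IC50 via a four-parameter logistic model.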

In experiment [3] the test system is recombinant human Bcl-2-G101V protein. As to the kind of experiment: Bcl-2-G101V TR-FRET Assay. The class given is binding. The conditions noted are these: ratio of biochemical IC50 Bcl-2 G101V / Bcl-2 WT. Summed up:
as §1

Experiment [4] relates to RS4;11 (BCL-2 dependent acute lymphoblastic leukemia cell line). As to the kind of experiment: RS4;11 Cell Proliferation Assay. It counts as cell-based. As to conditions: Homo sapiens, RS4-11, RS4;11 cells, read-out: Cellular proliferation assay (IC50, nM) RS4. In a few lines: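 RS4;11 cells, 50,000 per well in RPMI-1640 with 10% FBS, treated 48 h at 37 °C with a 10-point dilution series topping at 1 μM. Viability read by CellTiter-Glo ATP luminescence; mean IC50 reported.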

Experiment [5] deals with BCL-2 G101V knock-in cell line H96 (derive from RS4;11). Description: Bcl 2-G101V Knock-In RS4;11 Cell Proliferation Assay. It counts as cell-based. The conditions noted are these: Homo sapiens, RS4;11 Bcl-2 G101V knock-in clone H96, 48 hrs, CellTiter-GLO, read-out: Cellular proliferation assay (IC50, nM) RS4. In a few lines:
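H96, a CRISPR-generated RS4;11 clone carrying BCL2-G101V knock-in (WES/RNA-seq validated), seeded 50,000 per well and exposed 48 h at 37 °C to 10-point dilutions topping at 1 or 10 μM. Viability by CellTiter-Glo luminescence; mean IC50.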

Turning to `CC(C)c1ccccc1[C@@H]1CN(Cc2ccnc3c2OC(C)(C)CO3)CCN1C1CC2(C1)CN(c1ccc(C(=O)NS(=O)(=O)c3ccc(NC[C@H]4CC[C@](C)(O)CC4)c([N+](=O)[O-])c3)c(Oc3cnc4[nH]ccc4c3)c1)C2` [Example 314, 2-((1H-pyrrolo[2,3-b]pyridin-5-yl)oxy)-4-(6-((R)-4-((2,2-dimethyl-2,3-dihydro-[1,4]dioxino[2,3-b]pyridin-8-yl)methyl)-2-(2-isopropylphenyl)piperazin-1-yl)-2-azaspiro[3.3]heptan-2-yl)-N-((4-((((1r,4r)-4-hydroxy-4-methylcyclohexyl)methyl)amino)-3-nitrophenyl)sulfonyl)benzamide], the IC50 in experiment [1] came out at 0.032 nM; in experiment [2], 0.13 nM; in experiment [4], 0.17 nM; in experiment [5], 0.61 nM. The “Ratio of Bcl-2 G101V/WT” value in experiment [3] was 4.2.

With `CC(C)c1ccccc1[C@@H]1CN(Cc2cccc3c2OCC(C)(C)O3)CCN1C1CC2(C1)CN(c1ccc(C(=O)NS(=O)(=O)c3ccc(NC[C@H]4CC[C@](C)(O)CC4)c([N+](=O)[O-])c3)c(Oc3cnc4[nH]cc(F)c4c3)c1)C2` [Example 315, 4-(6-((R)-4-((2,2-dimethyl-2,3-dihydrobenzo[b][1,4]dioxin-5-yl)methyl)-2-(2-isopropylphenyl)piperazin-1-yl)-2-azaspiro[3.3]heptan-2-yl)-2-((3-fluoro-1H-pyrrolo[2,3-b]pyridin-5-yl)oxy)-N-((4-((((1r,4r)-4-hydroxy-4-methylcyclohexyl)methyl)amino)-3-nitrophenyl)sulfonyl)benzamide], the IC50 in experiment [1] worked out at 0.31 nM; in experiment [2], 0.99 nM; in experiment [4], 0.18 nM; in experiment [5], 0.86 nM. In experiment [3], the “Ratio of Bcl-2 G101V/WT” value worked out at 3.2.

As to `CC(C)c1ccccc1[C@@H]1CN(Cc2ccnc3c2OCC(C)(C)O3)CCN1C1CC2(C1)CN(c1ccc(C(=O)NS(=O)(=O)c3ccc(NC[C@H]4CC[C@](C)(O)CC4)c([N+](=O)[O-])c3)c(Oc3cnc4[nH]ccc4c3)c1)C2` [Example 316, 2-((1H-pyrrolo[2,3-b]pyridin-5-yl)oxy)-4-(6-((R)-4-((3,3-dimethyl-2,3-dihydro-[1,4]dioxino[2,3-b]pyridin-8-yl)methyl)-2-(2-isopropylphenyl)piperazin-1-yl)-2-azaspiro[3.3]heptan-2-yl)-N-((4-((((1r,4r)-4-hydroxy-4-methylcyclohexyl)methyl)amino)-3-nitrophenyl)sulfonyl)benzamide], the IC50 in experiment [1] is 0.022 nM; in experiment [2] it was 0.1 nM; in experiment [4] it was 0.16 nM; in experiment [5] it was 0.53 nM. In addition, the “Ratio of Bcl-2 G101V/WT” value in experiment [3] worked out at 4.5.

For `COc1cc(CN2CCN(C3CC4(C3)CN(c3ccc(C(=O)NS(=O)(=O)c5ccc(NC[C@H]6CC[C@](C)(O)CC6)c([N+](=O)[O-])c5)c(Oc5cnc6[nH]cc(F)c6c5)c3)C4)[C@H](c3ccccc3C(C)C)C2)ccc1Cl` [Example 325, 4-(6-((R)-4-(4-chloro-3-methoxybenzyl)-2-(2-isopropylphenyl)piperazin-1-yl)-2-azaspiro[3.3]heptan-2-yl)-2-((3-fluoro-1H-pyrrolo[2,3-b]pyridin-5-yl)oxy)-N-((4-((((1r,4r)-4-hydroxy-4-methylcyclohexyl)methyl)amino)-3-nitrophenyl)sulfonyl) benzamide], the IC50 worked out at 0.49 nM in experiment [1], 0.97 nM in experiment [2], 0.21 nM in experiment [4] and 0.53 nM in experiment [5]. Further, the “Ratio of Bcl-2 G101V/WT” value in experiment [3] is recorded as 2.

Take `COc1cc(CN2CCN(C3CC4(C3)CN(c3ccc(C(=O)NS(=O)(=O)c5ccc(NC[C@H]6CC[C@](C)(O)CC6)c([N+](=O)[O-])c5)c(Oc5cnc6[nH]ccc6c5)c3)C4)[C@H](c3ccccc3C(C)C)C2)cc2c1OC(C)(C)C=C2` [Example 329, 2-((1H-pyrrolo[2,3-b]pyridin-5-yl)oxy)-N-((4-((((1r,4r)-4-hydroxy-4-methylcyclohexyl)methyl)amino)-3-nitrophenyl)sulfonyl)-4-(6-((R)-2-(2-isopropylphenyl)-4-((8-methoxy-2,2-dimethyl-2H-chromen-6-yl)methyl)piperazin-1-yl)-2-azaspiro[3.3]heptan-2-yl) benzamide]: the IC50 in experiment [1] came out at 0.15 nM; in experiment [2] it was 0.47 nM; in experiment [4], 0.25 nM; in experiment [5], 1.3 nM. The “Ratio of Bcl-2 G101V/WT” value in experiment [3] amounted to 3.1.

Turning to `COc1cc(CN2CCN(C3CC4(C3)CN(c3ccc(C(=O)NS(=O)(=O)c5ccc(NC[C@H]6CC[C@](C)(O)CC6)c([N+](=O)[O-])c5)c(Oc5cnc6[nH]cc(F)c6c5)c3)C4)[C@H](c3ccccc3C(C)C)C2)cc2c1OC(C)(C)C=C2` [Example 330, 2-((3-fluoro-1H-pyrrolo[2,3-b]pyridin-5-yl)oxy)-N-((4-((((1r,4r)-4-hydroxy-4-methylcyclohexyl)methyl)amino)-3-nitrophenyl)sulfonyl)-4-(6-((R)-2-(2-isopropylphenyl)-4-((8-methoxy-2,2-dimethyl-2H-chromen-6-yl)methyl)piperazin-1-yl)-2-azaspiro [3.3]heptan-2-yl)benzamide], the IC50 was 0.26 nM in experiment [1], 0.62 nM in experiment [2], 0.18 nM in experiment [4] and 0.79 nM in experiment [5]. Besides, the “Ratio of Bcl-2 G101V/WT” value in experiment [3] is 2.4.

Take `COc1cc(CN2CCN(C3CC4(C3)CN(c3ccc(C(=O)NS(=O)(=O)c5ccc(NC[C@H]6CC[C@](C)(O)CC6)c([N+](=O)[O-])c5)c(Oc5cnc6[nH]ccc6c5)c3)C4)[C@H](c3ccccc3C(C)C)C2)cc2occc12` [Example 331, 2-((1H-pyrrolo[2,3-b]pyridin-5-yl)oxy)-N-((4-((((1r,4r)-4-hydroxy-4-methylcyclohexyl)methyl)amino)-3-nitrophenyl)sulfonyl)-4-(6-((R)-2-(2-isopropylphenyl)-4-((4-methoxybenzofuran-6-yl)methyl)piperazin-1-yl)-2-azaspiro[3.3]heptan-2-yl)benzamide]: the IC50 in experiment [1] was 0.29 nM; in experiment [2], 0.62 nM; in experiment [4], 0.16 nM; in experiment [5], 0.69 nM. Further, the “Ratio of Bcl-2 G101V/WT” value in experiment [3] is on record as 2.1.

For the compound `COc1cc(CN2CCN(C3CC4(C3)CN(c3ccc(C(=O)NS(=O)(=O)c5ccc(NC[C@H]6CC[C@](C)(O)CC6)c([N+](=O)[O-])c5)c(Oc5cnc6[nH]cc(F)c6c5)c3)C4)[C@H](c3ccccc3C(C)C)C2)cc2occc12` [Example 332, 2-((3-fluoro-1H-pyrrolo[2,3-b]pyridin-5-yl)oxy)-N-((4-((((1r,4r)-4-hydroxy-4-methylcyclohexyl)methyl)amino)-3-nitrophenyl)sulfonyl)-4-(6-((R)-2-(2-isopropylphenyl)-4-((4-methoxybenzofuran-6-yl)methyl)piperazin-1-yl)-2-azaspiro[3.3]heptan-2-yl)benzamide], the IC50 in experiment [1] turned out to be 0.7 nM; in experiment [2], 1.1 nM; in experiment [4], 0.17 nM; in experiment [5], 0.54 nM. Also, the “Ratio of Bcl-2 G101V/WT” value in experiment [3] amounted to 1.6.

With `COc1cc(CN2CCN(C3CC4(C3)CN(c3ccc(C(=O)NS(=O)(=O)c5ccc(NC[C@H]6CC[C@](C)(O)CC6)c([N+](=O)[O-])c5)c(Oc5cnc6[nH]cc(F)c6c5)c3)C4)[C@H](c3ccccc3C(C)C)C2)cc2c1OCCC2(C)C` [Example 333, 2-((3-fluoro-1H-pyrrolo[2,3-b]pyridin-5-yl)oxy)-N-((4-((((1r,4r)-4-hydroxy-4-methylcyclohexyl)methyl)amino)-3-nitrophenyl)sulfonyl)-4-(6-((R)-2-(2-isopropylphenyl)-4-((8-methoxy-4,4-dimethylchroman-6-yl)methyl)piperazin-1-yl)-2-azaspiro[3.3]heptan-2-yl) benzamide], the IC50 in experiment [1] came out at 0.11 nM; in experiment [2] it was 0.37 nM; in experiment [4], 0.13 nM; in experiment [5], 0.26 nM. Further, in experiment [3], the “Ratio of Bcl-2 G101V/WT” value was determined as 3.2.

With `COc1cc(CN2CCN(C3CC4(C3)CN(c3ccc(C(=O)NS(=O)(=O)c5ccc(NC[C@H]6CC[C@](C)(O)CC6)c([N+](=O)[O-])c5)c(Oc5cnc6[nH]ccc6c5)c3)C4)[C@H](c3ccccc3C(C)C)C2)cc2c1OCCC2(C)C` [Example 334], the IC50 in experiment [1] was found to be 0.12 nM; in experiment [2], 0.33 nM; in experiment [4], 0.17 nM; in experiment [5], 0.65 nM. Also, the “Ratio of Bcl-2 G101V/WT” value in experiment [3] came out at 2.8.
